Experiment: Small volume in vitro release test in 50 ml 0.1N HCl (model of fasted stomach)
Type: physicochemical
Conditions: 37° C., 150 rpm
Protocol: The formulations were tested for their small volume in vitro release characteristics in 50 ml 0.1N HCl at 37° C. and 150 rpm using the following procedure: III. Instrumentation (or Equivalent) a. Automated Dissolution System comprising of: Hanson SR8 Plus Test Station Hanson Auto Plus Maximiser System Controller Hanson Auto Plus MultiFill Fraction Collector b. HPLC System comprising of: pump—Merck Hitachi L-7100 autoinjector—Merck Hitachi L-7200 column oven—Merck Hitachi L-7300 detector—Merck Hitachi L-7400 interface and integration software—Merck Hitachi D-7000
0.1N HCl Preparation Dilute 8.5 ml HCl 37% to 1 liter with purified water. Procedure Place one weighed capsule in each vessel containing 0.1N HCl and immediately operate the apparatus for 30 min. Unless otherwise specified, 3 ml samples are withdrawn from each vessel and immediately filtered through PTFE membranes at 15 and 30 min.
The small volume was chosen as a model of the conditions in a fasted stomach.

In the case of CC(C)OC(=O)C(C)(C)Oc1ccc(C(=O)c2ccc(Cl)cc2)cc1 [Micronized Fenofibrate], the “dissolution in 50 ml 0.1N HCl (in words)” value is reported as “no dissolution at all”, the “% dissolved 15 min” value (15 min) is reported as 0% and the “% dissolved 30 min” value (30 min) is reported as 0%.
